Tests used:
Test in all cases: G' assay (10 uM PL peptide), results of TABLE 7 and TABLE 12
Format in all cases: binding
[1] = target: T1, PDZ protein (GST-PDZ fusion) (Homo sapiens, UniProt P78352)
T1 construct: made in house; host or cells: E. coli (DH5alpha, BL21 or JM109)
Summary of the method: (§1)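 Biotinylated PL peptides at 10 uM (vs 20 uM in G^0 assay) bound to GST-PDZ fusions; PDZ protein at 5 ug/ml unless another concentration listed. Bound peptide read as A450 nm, classified 0–5 (0 = A450 0; 5 = A450 >4 repeated).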

[2] = target: T2, PDZ protein (GST-PDZ fusion) (Homo sapiens, UniProt Q86UL8)
T2 construct: made in house; host or cells: E. coli (DH5alpha, BL21 or JM109)
Summary of the method: as §1

[3] = target: T3, PDZ protein (GST-PDZ fusion) (Homo sapiens, UniProt P57105); settings: PDZ Outer Membrane, PDZ Domain 1
T3 construct: made in house; host or cells: E. coli (DH5alpha, BL21 or JM109)
T3 sequence (P57105 1-145): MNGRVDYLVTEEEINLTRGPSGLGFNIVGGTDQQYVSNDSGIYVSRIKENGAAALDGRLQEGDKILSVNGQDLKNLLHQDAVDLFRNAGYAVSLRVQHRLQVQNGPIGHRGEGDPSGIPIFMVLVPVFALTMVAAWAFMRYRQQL
Summary of the method: as §1

[4] = target: T4, PDZ protein (GST-PDZ fusion) (Homo sapiens, UniProt Q9NZN5); settings: PDZ KIAA0382, PDZ Domain 1
T4 construct: made in house; host or cells: E. coli (DH5alpha, BL21 or JM109)
Summary of the method: as §1

[5] = target: T5, PDZ protein (GST-PDZ fusion) (Homo sapiens, UniProt Q9P202); settings: PDZ KIAA1526, PDZ Domain 1
T5 construct: made in house; host or cells: E. coli (DH5alpha, BL21 or JM109)
T5 sequence (Q9P202 1-907): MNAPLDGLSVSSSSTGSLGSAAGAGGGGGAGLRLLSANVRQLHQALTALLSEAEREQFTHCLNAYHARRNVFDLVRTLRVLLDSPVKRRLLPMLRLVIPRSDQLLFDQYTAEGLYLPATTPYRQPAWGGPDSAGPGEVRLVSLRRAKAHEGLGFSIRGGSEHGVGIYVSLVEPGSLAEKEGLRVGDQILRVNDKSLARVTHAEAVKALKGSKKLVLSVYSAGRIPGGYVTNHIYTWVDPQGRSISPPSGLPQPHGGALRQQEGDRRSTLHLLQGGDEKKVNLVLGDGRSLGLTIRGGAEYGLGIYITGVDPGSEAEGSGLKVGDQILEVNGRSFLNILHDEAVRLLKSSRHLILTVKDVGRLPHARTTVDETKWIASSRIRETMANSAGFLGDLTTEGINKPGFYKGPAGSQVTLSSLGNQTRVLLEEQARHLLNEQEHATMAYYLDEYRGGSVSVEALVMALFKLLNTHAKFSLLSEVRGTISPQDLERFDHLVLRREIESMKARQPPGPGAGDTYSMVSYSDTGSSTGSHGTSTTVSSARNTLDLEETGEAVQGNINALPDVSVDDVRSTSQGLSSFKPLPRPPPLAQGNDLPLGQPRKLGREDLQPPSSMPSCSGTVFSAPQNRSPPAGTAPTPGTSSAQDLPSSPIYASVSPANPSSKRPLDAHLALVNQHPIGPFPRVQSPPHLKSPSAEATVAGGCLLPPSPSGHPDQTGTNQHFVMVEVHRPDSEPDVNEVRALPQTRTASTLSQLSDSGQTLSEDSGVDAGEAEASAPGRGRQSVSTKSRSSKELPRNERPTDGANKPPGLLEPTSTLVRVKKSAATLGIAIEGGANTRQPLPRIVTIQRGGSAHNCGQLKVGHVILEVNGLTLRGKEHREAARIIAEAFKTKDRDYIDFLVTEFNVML
Summary of the method: as §1

[6] = target: T6, PDZ protein (GST-PDZ fusion) (Homo sapiens, UniProt Q8NI35); settings: PDZ INADL
T6 construct: made in house; host or cells: E. coli (DH5alpha, BL21 or JM109)
Summary of the method: as §1

[7] = target: T7, PDZ protein (GST-PDZ fusion) (Homo sapiens, UniProt O14907); settings: PDZ TIP1, PDZ Domain 1
T7 construct: made in house; host or cells: E. coli (DH5alpha, BL21 or JM109)
T7 sequence (O14907 1-124): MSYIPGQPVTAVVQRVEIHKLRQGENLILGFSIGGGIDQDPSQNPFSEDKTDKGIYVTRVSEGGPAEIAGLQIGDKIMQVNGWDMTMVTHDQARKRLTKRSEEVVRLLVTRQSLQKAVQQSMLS
Summary of the method: as §1

[8] = target: T8, PDZ protein (GST-PDZ fusion) (Homo sapiens, UniProt Q14160)
T8 construct: made in house; host or cells: E. coli (DH5alpha, BL21 or JM109)
Summary of the method: as §1

[9] = target: T9, PDZ protein (GST-PDZ fusion) (Homo sapiens, UniProt Q15700)
T9 construct: made in house; host or cells: E. coli (DH5alpha, BL21 or JM109)
Summary of the method: as §1

[10] = target: T10, PDZ protein (GST-PDZ fusion) (Homo sapiens, UniProt O15018); settings: PDZ AIPC, PDZ Domain 1
T10 construct: made in house; host or cells: E. coli (DH5alpha, BL21 or JM109)
Summary of the method: as §1

T6 sequence (Q8NI35 whole entry, the tested form may be a part): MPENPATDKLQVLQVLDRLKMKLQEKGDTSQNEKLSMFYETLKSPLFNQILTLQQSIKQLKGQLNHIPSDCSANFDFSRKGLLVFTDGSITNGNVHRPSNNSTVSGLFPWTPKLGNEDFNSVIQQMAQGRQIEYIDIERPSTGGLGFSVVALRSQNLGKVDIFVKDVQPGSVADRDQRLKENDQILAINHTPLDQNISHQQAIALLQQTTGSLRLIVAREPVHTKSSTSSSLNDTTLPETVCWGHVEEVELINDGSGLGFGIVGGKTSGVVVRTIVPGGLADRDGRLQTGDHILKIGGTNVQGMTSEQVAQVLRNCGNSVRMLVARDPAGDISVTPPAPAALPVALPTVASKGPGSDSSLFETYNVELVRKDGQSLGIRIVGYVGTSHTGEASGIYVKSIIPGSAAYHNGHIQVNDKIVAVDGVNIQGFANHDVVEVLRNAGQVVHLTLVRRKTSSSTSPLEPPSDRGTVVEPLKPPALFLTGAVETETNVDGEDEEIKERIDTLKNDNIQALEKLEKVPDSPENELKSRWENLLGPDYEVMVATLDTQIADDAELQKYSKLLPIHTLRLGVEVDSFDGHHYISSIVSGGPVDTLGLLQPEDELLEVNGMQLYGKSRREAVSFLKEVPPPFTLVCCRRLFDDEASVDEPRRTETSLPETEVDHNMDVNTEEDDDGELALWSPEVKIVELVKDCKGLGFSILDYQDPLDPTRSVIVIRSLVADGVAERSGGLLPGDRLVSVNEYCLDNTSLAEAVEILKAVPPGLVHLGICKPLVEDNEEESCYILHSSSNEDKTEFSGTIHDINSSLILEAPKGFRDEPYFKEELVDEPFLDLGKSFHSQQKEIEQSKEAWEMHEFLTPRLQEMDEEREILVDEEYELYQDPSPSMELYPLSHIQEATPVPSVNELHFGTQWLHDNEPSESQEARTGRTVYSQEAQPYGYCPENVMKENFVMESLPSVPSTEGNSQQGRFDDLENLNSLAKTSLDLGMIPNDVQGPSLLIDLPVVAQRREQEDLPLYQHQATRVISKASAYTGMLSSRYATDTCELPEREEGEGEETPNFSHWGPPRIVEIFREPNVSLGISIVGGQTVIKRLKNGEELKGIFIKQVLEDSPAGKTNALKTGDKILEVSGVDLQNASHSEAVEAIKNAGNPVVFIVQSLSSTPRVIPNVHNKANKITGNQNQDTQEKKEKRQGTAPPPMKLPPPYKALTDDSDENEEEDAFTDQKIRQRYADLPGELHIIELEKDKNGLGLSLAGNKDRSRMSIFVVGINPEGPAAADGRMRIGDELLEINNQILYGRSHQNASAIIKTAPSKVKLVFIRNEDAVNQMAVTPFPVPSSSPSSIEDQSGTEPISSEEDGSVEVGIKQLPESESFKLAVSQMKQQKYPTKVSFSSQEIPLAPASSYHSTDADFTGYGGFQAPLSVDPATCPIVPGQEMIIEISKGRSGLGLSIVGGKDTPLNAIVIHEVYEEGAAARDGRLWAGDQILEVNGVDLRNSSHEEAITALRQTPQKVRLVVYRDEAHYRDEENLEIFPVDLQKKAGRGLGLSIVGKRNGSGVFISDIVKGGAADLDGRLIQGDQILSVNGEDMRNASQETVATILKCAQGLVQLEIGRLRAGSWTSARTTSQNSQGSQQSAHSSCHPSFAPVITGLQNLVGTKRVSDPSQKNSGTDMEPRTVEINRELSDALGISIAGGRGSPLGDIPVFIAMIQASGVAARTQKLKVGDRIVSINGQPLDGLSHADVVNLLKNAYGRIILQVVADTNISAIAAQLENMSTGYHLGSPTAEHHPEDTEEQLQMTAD
T8 sequence (Q14160 whole entry, the tested form may be a part): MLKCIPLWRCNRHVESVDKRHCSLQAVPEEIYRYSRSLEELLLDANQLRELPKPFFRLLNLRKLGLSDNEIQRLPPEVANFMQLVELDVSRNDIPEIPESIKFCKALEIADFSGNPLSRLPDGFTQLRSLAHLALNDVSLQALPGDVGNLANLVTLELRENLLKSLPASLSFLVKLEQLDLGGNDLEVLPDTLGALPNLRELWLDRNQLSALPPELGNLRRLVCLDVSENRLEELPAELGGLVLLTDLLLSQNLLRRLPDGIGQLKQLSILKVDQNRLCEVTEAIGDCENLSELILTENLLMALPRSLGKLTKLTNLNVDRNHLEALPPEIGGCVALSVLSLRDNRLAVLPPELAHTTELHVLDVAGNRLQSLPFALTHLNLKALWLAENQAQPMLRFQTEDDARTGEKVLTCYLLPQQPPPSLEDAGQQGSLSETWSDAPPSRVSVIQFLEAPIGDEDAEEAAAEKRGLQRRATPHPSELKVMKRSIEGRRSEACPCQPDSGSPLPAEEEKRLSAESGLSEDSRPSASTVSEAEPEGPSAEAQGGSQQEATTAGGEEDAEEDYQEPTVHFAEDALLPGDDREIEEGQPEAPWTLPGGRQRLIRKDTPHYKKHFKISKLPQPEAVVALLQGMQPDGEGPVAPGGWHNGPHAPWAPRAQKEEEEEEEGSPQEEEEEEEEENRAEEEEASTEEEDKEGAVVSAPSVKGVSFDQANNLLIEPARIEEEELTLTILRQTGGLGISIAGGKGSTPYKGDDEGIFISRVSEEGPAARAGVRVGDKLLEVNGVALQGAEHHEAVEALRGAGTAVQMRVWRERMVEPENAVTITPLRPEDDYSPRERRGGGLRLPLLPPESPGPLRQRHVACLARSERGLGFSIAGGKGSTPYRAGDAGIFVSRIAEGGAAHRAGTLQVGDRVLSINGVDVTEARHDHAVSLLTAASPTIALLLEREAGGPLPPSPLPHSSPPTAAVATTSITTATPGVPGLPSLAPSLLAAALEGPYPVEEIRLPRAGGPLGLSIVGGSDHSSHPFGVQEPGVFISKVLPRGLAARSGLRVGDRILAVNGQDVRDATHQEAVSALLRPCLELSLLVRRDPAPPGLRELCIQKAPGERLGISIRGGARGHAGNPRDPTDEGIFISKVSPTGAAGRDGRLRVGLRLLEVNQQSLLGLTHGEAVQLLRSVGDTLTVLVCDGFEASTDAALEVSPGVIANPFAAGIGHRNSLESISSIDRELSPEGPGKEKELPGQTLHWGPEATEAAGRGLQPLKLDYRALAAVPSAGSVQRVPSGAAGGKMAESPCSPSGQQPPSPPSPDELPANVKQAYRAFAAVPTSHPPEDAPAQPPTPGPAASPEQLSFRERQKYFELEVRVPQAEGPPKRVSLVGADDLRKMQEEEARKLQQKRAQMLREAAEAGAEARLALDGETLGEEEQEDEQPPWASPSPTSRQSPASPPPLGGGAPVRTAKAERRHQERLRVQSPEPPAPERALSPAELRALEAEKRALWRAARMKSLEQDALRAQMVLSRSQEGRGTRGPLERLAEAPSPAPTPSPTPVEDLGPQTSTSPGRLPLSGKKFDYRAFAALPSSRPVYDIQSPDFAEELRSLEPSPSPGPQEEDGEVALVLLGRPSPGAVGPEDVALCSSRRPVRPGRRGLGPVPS
T2 sequence (Q86UL8 whole entry, the tested form may be a part): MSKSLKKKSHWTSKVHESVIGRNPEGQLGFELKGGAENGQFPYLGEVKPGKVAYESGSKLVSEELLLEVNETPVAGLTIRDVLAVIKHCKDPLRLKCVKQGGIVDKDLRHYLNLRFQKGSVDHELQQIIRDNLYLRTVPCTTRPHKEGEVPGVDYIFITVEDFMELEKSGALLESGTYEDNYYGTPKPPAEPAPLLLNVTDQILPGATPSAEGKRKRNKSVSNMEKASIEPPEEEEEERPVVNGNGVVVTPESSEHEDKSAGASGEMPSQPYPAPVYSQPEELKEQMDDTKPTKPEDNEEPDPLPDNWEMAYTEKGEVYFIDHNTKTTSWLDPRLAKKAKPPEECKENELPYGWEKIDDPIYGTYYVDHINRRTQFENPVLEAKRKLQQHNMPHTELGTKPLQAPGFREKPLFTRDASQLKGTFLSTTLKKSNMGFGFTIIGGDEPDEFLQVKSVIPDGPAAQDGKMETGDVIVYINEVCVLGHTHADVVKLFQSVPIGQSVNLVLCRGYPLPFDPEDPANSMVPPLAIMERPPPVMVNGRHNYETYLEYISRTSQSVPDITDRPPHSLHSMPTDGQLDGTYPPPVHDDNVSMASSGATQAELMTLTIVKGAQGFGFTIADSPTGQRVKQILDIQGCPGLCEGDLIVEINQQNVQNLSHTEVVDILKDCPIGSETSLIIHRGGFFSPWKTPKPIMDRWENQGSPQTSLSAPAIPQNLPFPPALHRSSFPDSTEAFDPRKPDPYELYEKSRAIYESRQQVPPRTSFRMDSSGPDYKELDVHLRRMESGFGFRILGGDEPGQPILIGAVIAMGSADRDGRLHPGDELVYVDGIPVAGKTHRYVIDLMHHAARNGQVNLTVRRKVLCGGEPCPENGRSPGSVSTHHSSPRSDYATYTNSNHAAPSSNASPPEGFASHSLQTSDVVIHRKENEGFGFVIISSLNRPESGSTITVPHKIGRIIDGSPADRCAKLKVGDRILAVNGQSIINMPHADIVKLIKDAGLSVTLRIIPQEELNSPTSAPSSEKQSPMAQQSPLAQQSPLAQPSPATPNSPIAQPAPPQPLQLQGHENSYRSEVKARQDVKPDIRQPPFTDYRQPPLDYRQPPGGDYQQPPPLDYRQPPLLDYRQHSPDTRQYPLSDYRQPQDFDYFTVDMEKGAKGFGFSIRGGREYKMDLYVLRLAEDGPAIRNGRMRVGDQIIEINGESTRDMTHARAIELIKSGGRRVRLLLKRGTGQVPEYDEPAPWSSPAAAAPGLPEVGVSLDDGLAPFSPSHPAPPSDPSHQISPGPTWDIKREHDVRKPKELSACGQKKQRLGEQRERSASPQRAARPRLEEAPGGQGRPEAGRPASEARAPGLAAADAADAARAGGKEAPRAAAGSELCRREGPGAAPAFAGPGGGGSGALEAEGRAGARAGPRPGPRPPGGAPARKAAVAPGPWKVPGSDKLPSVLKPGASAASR

For TQGFPGPATWRRISSLESEV, the Classification ([1]; PDZ PSD95, PDZ Domain 1) was 5 (A450 nm of 4 more than 2× repeated), the Classification ([1]; PDZ PSD95, PDZ Domain 1, 2, 3) was 5 (A450 nm of 4 more than 2× repeated) and the Classification ([1]; PDZ PSD95, PDZ Domain 3) was 2 (A450 nm 1-2). The Classification ([2]; PDZ Atrophin-1 Inter. Prot., PDZ Domain 5) was 5 (A450 nm of 4 more than 2× repeated), the Classification ([2]; PDZ atrophin-1 interacting Protein, PDZ Domain 1) was 5 (A450 nm of 4 more than 2× repeated) and the Classification ([2]; PDZ atrophin-1 interacting Protein, PDZ Domain 3) was 2 (A450 nm 1-2). The Classification [3] was 5 (A450 nm of 4 more than 2× repeated), the Classification [4] was 1 (A450 nm 0-1) and the Classification [5] was 3 (A450 nm 2-3). The Classification ([6]; PDZ Domain 3) was 2 (A450 nm 1-2), the Classification ([6]; PDZ Domain 5) was 1 (A450 nm 0-1) and the Classification ([6]; PDZ Domain 8) was 1 (A450 nm 0-1). The Classification [7] was 5 (A450 nm of 4 more than 2× repeated), the Classification ([8]; PDZ KIAA0147, PDZ Domain 1) was 5 (A450 nm of 4 more than 2× repeated) and the Classification ([8]; PDZ KIAA0147, PDZ Domain 2) was 1 (A450 nm 0-1). For the same sequence, the Classification ([8]; PDZ KIAA0147, PDZ Domain 3) was 1 (A450 nm 0-1), the Classification ([9]; PDZ DLG2, PDZ Domain 1) was 4 (A450 nm 3-4) and the Classification ([9]; PDZ DLG2, PDZ Domain 2) was 5 (A450 nm of 4 more than 2× repeated). The Classification [10] was 3 (A450 nm 2-3).

— patent US20050282743A1, “Molecular interactions in cells” (Arbor Vita Corporation, priority 2001, published 2005)
